According to PubChem BioAssay AID2060503 (Molecular Pharmacology Branch, DTP, NCI, 2025):

Tested on: 817829-284-R-J1-PDC complex spheroids, viability
Test: Anticancer human tumor 817829-284-R-J1-PDC patient-derived colon adenocarcinoma cell line growth inhibition [GQUAD]
Details: for IC50: curve of first compound; for viability, T/C: stronger effect = lower value
Outline: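 Tumor cells were grown as complex spheroids with HUVEC endothelial cells and mesenchymal stem cells as stroma. G-quadruplex stabilizers were combined with targeted agents over half-log dilutions from near the clinical Cmax, or from 10 microM.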

[1] = second compound 0.0316 µM, first compound 0.0316 µM
[2] = second compound 0.0316 µM, first compound 0.1 µM
[3] = second compound 0.0316 µM, first compound 0.316 µM
[4] = second compound 0.0316 µM, first compound 1 µM
[5] = second compound 0.0316 µM, first compound 3.16 µM
[6] = second compound 0.0316 µM, first compound 10 µM
[7] = second compound 0.1 µM, first compound 0.0316 µM
[8] = second compound 0.1 µM, first compound 0.1 µM
[9] = second compound 0.1 µM, first compound 0.316 µM
[10] = second compound 0.1 µM, first compound 1 µM
[11] = second compound 0.1 µM, first compound 3.16 µM
[12] = second compound 0.1 µM, first compound 10 µM
[13] = second compound 0.316 µM, first compound 0.0316 µM
[14] = second compound 0.316 µM, first compound 0.1 µM
[15] = second compound 0.316 µM, first compound 0.316 µM
[16] = second compound 0.316 µM, first compound 1 µM
[17] = second compound 0.316 µM, first compound 3.16 µM
[18] = second compound 0.316 µM, first compound 10 µM
[19] = second compound 1 µM, first compound 0.0316 µM
[20] = second compound 1 µM, first compound 0.1 µM
[21] = second compound 1 µM, first compound 0.316 µM
[22] = second compound 1 µM, first compound 1 µM
[23] = second compound 1 µM, first compound 3.16 µM
[24] = second compound 1 µM, first compound 10 µM
[25] = second compound 3.16 µM, first compound 0.0316 µM
[26] = second compound 3.16 µM, first compound 0.1 µM
[27] = second compound 3.16 µM, first compound 0.316 µM
[28] = second compound 3.16 µM, first compound 1 µM
[29] = second compound 3.16 µM, first compound 3.16 µM
[30] = second compound 3.16 µM, first compound 10 µM
[31] = second compound 10 µM, first compound 0.0316 µM
[32] = second compound 10 µM, first compound 0.1 µM
[33] = second compound 10 µM, first compound 0.316 µM
[34] = second compound 10 µM, first compound 1 µM
[35] = second compound 10 µM, first compound 3.16 µM
[36] = second compound 10 µM, first compound 10 µM
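Further: spheroids exposed to agents for 7 days before readout.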
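Wherever viability, T/C is given: percent viability relative to DMSO vehicle control taken as 100%.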

Question: Which IC50 (second compound 0.0316 µM) does the source give for COc1cccc2c1C(=O)c1c(O)c3c(c(O)c1C2=O)CC(O)(C(=O)CO)CC3OC1CC(N)C(O)C(C)O1 (stereo unspecified) + CN(C)c1ccc(Nc2c3ccc(NC(=O)CCN4CCCC4)cc3nc3cc(NC(=O)CCN4CCCC4)ccc23)cc1 here?
Answer: 0.0955 µM

Question: And the IC50 (second compound 0.1 µM)?
Answer: 0.0945 µM

Question: And the IC50 (second compound 0.316 µM)?
Answer: 0.0934 µM

Question: What about the IC50 (second compound 1 µM) of the same molecule?
Answer: 0.0964 µM

Question: And the IC50 (second compound 3.16 µM)?
Answer: 0.091 µM

Question: And the IC50 (second compound 10 µM)?
Answer: 0.0957 µM

Question: What about the viability, T/C [1] of the same molecule?
Answer: 80.9%

Question: And the viability, T/C [2]?
Answer: 39.6%

Question: And the viability, T/C [3]?
Answer: 41%

Question: And the viability, T/C [4]?
Answer: 10%

Question: What about the viability, T/C [5] of the same molecule?
Answer: 0.59%

Question: And the viability, T/C [6]?
Answer: 0.64%

Question: What about the viability, T/C [7] of the same molecule?
Answer: 79.7%

Question: And the viability, T/C [8]?
Answer: 43.4%

Question: And the viability, T/C [9]?
Answer: 35.5%

Question: And the viability, T/C [10]?
Answer: 10.1%

Question: What about the viability, T/C [11] of the same molecule?
Answer: 0.47%

Question: And the viability, T/C [12]?
Answer: 0.28%

Question: And the viability, T/C [13]?
Answer: 82.7%

Question: What about the viability, T/C [14] of the same molecule?
Answer: 37.8%

Question: And the viability, T/C [15]?
Answer: 40.4%

Question: What about the viability, T/C [16] of the same molecule?
Answer: 9.85%

Question: And the viability, T/C [17]?
Answer: 0.54%

Question: What about the viability, T/C [18] of the same molecule?
Answer: 0.34%

Question: What about the viability, T/C [19] of the same molecule?
Answer: 83.1%

Question: What about the viability, T/C [20] of the same molecule?
Answer: 38.4%

Question: And the viability, T/C [21]?
Answer: 40.9%

Question: And the viability, T/C [22]?
Answer: 10.8%

Question: And the viability, T/C [23]?
Answer: 0.57%

Question: What about the viability, T/C [24] of the same molecule?
Answer: 0.34%

Question: And the viability, T/C [25]?
Answer: 91.9%

Question: And the viability, T/C [26]?
Answer: 37.6%

Question: And the viability, T/C [27]?
Answer: 33.8%

Question: What about the viability, T/C [28] of the same molecule?
Answer: 9.5%

Question: And the viability, T/C [29]?
Answer: 0.71%

Question: And the viability, T/C [30]?
Answer: 0.36%

Question: What about the viability, T/C [31] of the same molecule?
Answer: 85.8%

Question: What about the viability, T/C [32] of the same molecule?
Answer: 39%

Question: And the viability, T/C [33]?
Answer: 37.6%

Question: And the viability, T/C [34]?
Answer: 12.3%

Question: What about the viability, T/C [35] of the same molecule?
Answer: 1%

Question: And the viability, T/C [36]?
Answer: 0.33%

Question: For Nc1ccn(C2OC(CO)C(O)C2(F)F)c(=O)n1 (stereo unspecified) + CN(C)c1ccc(Nc2c3ccc(NC(=O)CCN4CCCC4)cc3nc3cc(NC(=O)CCN4CCCC4)ccc23)cc1, which IC50 (second compound 0.0316 µM) is on record?
Answer: < 0.0316 µM

Question: And the IC50 (second compound 0.1 µM)?
Answer: < 0.0316 µM

Question: What about the IC50 (second compound 0.316 µM) of the same molecule?
Answer: < 0.0316 µM

Question: And the IC50 (second compound 1 µM)?
Answer: < 0.0316 µM

Question: And the IC50 (second compound 3.16 µM)?
Answer: < 0.0316 µM

Question: And the IC50 (second compound 10 µM)?
Answer: < 0.0316 µM

Question: And the viability, T/C [1]?
Answer: 11.1%

Question: What about the viability, T/C [2] of the same molecule?
Answer: 6.76%

Question: And the viability, T/C [3]?
Answer: 7.53%

Question: And the viability, T/C [4]?
Answer: 6.63%

Question: What about the viability, T/C [5] of the same molecule?
Answer: 5.22%

Question: And the viability, T/C [6]?
Answer: 3.38%

Question: And the viability, T/C [7]?
Answer: 11.5%

Question: And the viability, T/C [8]?
Answer: 7.05%

Question: And the viability, T/C [9]?
Answer: 7.75%

Question: And the viability, T/C [10]?
Answer: 7.5%

Question: And the viability, T/C [11]?
Answer: 5.74%

Question: What about the viability, T/C [12] of the same molecule?
Answer: 4.58%

Question: And the viability, T/C [13]?
Answer: 10.2%

Question: And the viability, T/C [14]?
Answer: 7.22%

Question: What about the viability, T/C [15] of the same molecule?
Answer: 7.51%

Question: And the viability, T/C [16]?
Answer: 6.86%

Question: What about the viability, T/C [17] of the same molecule?
Answer: 5.17%

Question: And the viability, T/C [18]?
Answer: 3.32%

Question: What about the viability, T/C [19] of the same molecule?
Answer: 10.5%

Question: And the viability, T/C [20]?
Answer: 5.85%

Question: And the viability, T/C [21]?
Answer: 7.62%

Question: And the viability, T/C [22]?
Answer: 8.41%

Question: And the viability, T/C [23]?
Answer: 6.53%

Question: What about the viability, T/C [24] of the same molecule?
Answer: 3.73%

Question: And the viability, T/C [25]?
Answer: 8.54%

Question: And the viability, T/C [26]?
Answer: 7.05%

Question: What about the viability, T/C [27] of the same molecule?
Answer: 8.46%

Question: What about the viability, T/C [28] of the same molecule?
Answer: 8.5%

Question: And the viability, T/C [29]?
Answer: 6.92%

Question: And the viability, T/C [30]?
Answer: 3.39%

Question: And the viability, T/C [31]?
Answer: 10.7%

Question: What about the viability, T/C [32] of the same molecule?
Answer: 9.04%

Question: And the viability, T/C [33]?
Answer: 8.83%

Question: And the viability, T/C [34]?
Answer: 8.64%

Question: What about the viability, T/C [35] of the same molecule?
Answer: 6.59%

Question: And the viability, T/C [36]?
Answer: 4.48%

Question: For O=c1[nH]cc(F)c(=O)[nH]1 + CN(C)c1ccc(Nc2c3ccc(NC(=O)CCN4CCCC4)cc3nc3cc(NC(=O)CCN4CCCC4)ccc23)cc1, which IC50 (second compound 0.0316 µM) is on record?
Answer: 2.12 µM

Question: What about the IC50 (second compound 0.1 µM) of the same molecule?
Answer: 2.45 µM

Question: What about the IC50 (second compound 0.316 µM) of the same molecule?
Answer: 2.4 µM

Question: What about the IC50 (second compound 1 µM) of the same molecule?
Answer: 2.7 µM

Question: What about the IC50 (second compound 3.16 µM) of the same molecule?
Answer: 2.51 µM

Question: What about the IC50 (second compound 10 µM) of the same molecule?
Answer: 2.69 µM

Question: And the viability, T/C [1]?
Answer: 112%

Question: And the viability, T/C [2]?
Answer: 104%

Question: What about the viability, T/C [3] of the same molecule?
Answer: 119%

Question: What about the viability, T/C [4] of the same molecule?
Answer: 73.4%

Question: What about the viability, T/C [5] of the same molecule?
Answer: 44.2%

Question: And the viability, T/C [6]?
Answer: 30.7%

Question: What about the viability, T/C [7] of the same molecule?
Answer: 101%

Question: And the viability, T/C [8]?
Answer: 102%

Question: And the viability, T/C [9]?
Answer: 94.3%

Question: And the viability, T/C [10]?
Answer: 84.3%

Question: What about the viability, T/C [11] of the same molecule?
Answer: 39.9%

Question: What about the viability, T/C [12] of the same molecule?
Answer: 29.3%

Question: What about the viability, T/C [13] of the same molecule?
Answer: 102%

Question: What about the viability, T/C [14] of the same molecule?
Answer: 106%

Question: What about the viability, T/C [15] of the same molecule?
Answer: 97.1%

Question: What about the viability, T/C [16] of the same molecule?
Answer: 78.7%

Question: What about the viability, T/C [17] of the same molecule?
Answer: 40.7%

Question: What about the viability, T/C [18] of the same molecule?
Answer: 29.6%

Question: What about the viability, T/C [19] of the same molecule?
Answer: 99.5%

Question: What about the viability, T/C [20] of the same molecule?
Answer: 101%

Question: What about the viability, T/C [21] of the same molecule?
Answer: 108%

Question: And the viability, T/C [22]?
Answer: 83%

Question: What about the viability, T/C [23] of the same molecule?
Answer: 45.7%

Question: What about the viability, T/C [24] of the same molecule?
Answer: 31.6%

Question: And the viability, T/C [25]?
Answer: 91.2%

Question: What about the viability, T/C [26] of the same molecule?
Answer: 96.7%

Question: What about the viability, T/C [27] of the same molecule?
Answer: 102%

Question: And the viability, T/C [28]?
Answer: 74.1%

Question: What about the viability, T/C [29] of the same molecule?
Answer: 45.4%

Question: And the viability, T/C [30]?
Answer: 29%

Question: What about the viability, T/C [31] of the same molecule?
Answer: 102%

Question: And the viability, T/C [32]?
Answer: 95.9%

Question: And the viability, T/C [33]?
Answer: 100%

Question: And the viability, T/C [34]?
Answer: 80.5%

Question: And the viability, T/C [35]?
Answer: 45.3%

Question: What about the viability, T/C [36] of the same molecule?
Answer: 31.9%
